Measurements: publication PMC6066186 (Angewandte Chemie (International ed. in English), 2018)
pIC50: −log10 of the molar value. ≈ marks a conversion by molar mass, not a printed value.

Assays:
Mtb [1] = test: Growth inhibition; format: cell-based, Mycobacterium tuberculosis
Mtb [2] = test: Combination with isoniazid, Mtb growth; format: cell-based, Mycobacterium tuberculosis; settings: 250 nm, in the absence of TQZ
[3] = test system: ATP production through oxidative phosphorylation in membrane vesicles derived from mycobacteria; test: NADH-initiated ATP synthesis in mycobacterial membrane vesicles; format: biochemical; settings: read-out: IC50, inhibition of ATP synthesis, NADH added
Mtb [4] = settings: cited from earlier work
[5] = test system: NADH oxidation in purified membranes; settings: cited from earlier work

O=C(CSc1nc2cccc(F)c2c(=O)[nH]1)NC1CCCCC1 [CBR-3465]
MIC (Mtb [1]): 0.16 µM (≈ 0.0537 µg/mL)

NNC(=O)c1ccncc1 [INH, isoniazid]
effect on Mtb replication (Mtb [2]): completely prevents replication

COc1nc2ccc(Br)cc2cc1[C@@H](c1ccccc1)[C@@](O)(CCN(C)C)c1cccc2ccccc12 [bedaquiline]
pIC50 [3]: 8.16

C=C(C)[C@H]1Cc2c(ccc3c2O[C@@H]2COc4cc(OC)c(OC)cc4[C@@H]2C3=O)O1 [rotenone]
effect on mycobacterial growth (Mtb [4]): little effect
effect on NADH oxidation [5]: little effect
